Measurements taken from PubChem BioAssay (NCI).
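How tested: cells in 96-well plates exposed to compound for 48 hours at five concentrations. Here, GI50 denotes the concentration required for 50% inhibition of growth. TGI: total growth inhibition.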

Legend:
Assay in all cases: DTP human tumour cell line panel, 48 h
786-0 renal = system: 786-0 renal
DU-145 prostate = system: DU-145 prostate
HCT-116 colon = system: HCT-116 colon
HOP-62 NSCLC = system: HOP-62 NSCLC
IGROV1 ovarian = system: IGROV1 ovarian
MALME-3M melanoma = system: MALME-3M melanoma
MOLT-4 leukemia = system: MOLT-4 leukemia
NCI-H522 lung = system: NCI-H522 lung
OVCAR-4 ovarian = system: OVCAR-4 ovarian
SNB-19 CNS = system: SNB-19 CNS

| Compound | TGI (786-0 renal) | TGI (DU-145 prostate) | TGI (HCT-116 colon) | TGI (HOP-62 NSCLC) | TGI (IGROV1 ovarian) | TGI (MALME-3M melanoma) | TGI (MOLT-4 leukemia) | TGI (NCI-H522 lung) | TGI (OVCAR-4 ovarian) | TGI (SNB-19 CNS) | GI50 (HCT-116 colon) | GI50 (HOP-62 NSCLC) | GI50 (IGROV1 ovarian) | GI50 (MALME-3M melanoma) | GI50 (MOLT-4 leukemia) | GI50 (OVCAR-4 ovarian) | GI50 (DU-145 prostate) | GI50 (NCI-H522 lung) | GI50 (SNB-19 CNS) |
| --- | --- | --- | --- | --- | --- | --- | --- | --- | --- | --- | --- | --- | --- | --- | --- | --- | --- | --- | --- |
| COC[C@@H](N=Cc1ccc(OC)cc1)C(C)C | > 100 µM | > 100 µM | > 100 µM | > 100 µM | > 100 µM | > 100 µM | > 100 µM | > 100 µM | > 100 µM | – | – | – | – | – | – | – | – | – | – |
| CC(C)OP(=O)(OC(C)C)c1ncn(-c2ccc([N+](=O)[O-])cc2)n1 | – | – | > 100 µM | > 100 µM | > 100 µM | > 100 µM | > 100 µM | > 100 µM | > 100 µM | > 100 µM | – | – | – | – | – | – | – | – | – |
| CCO/C=N/C1=C(C#N)C(c2ccc(OC)c(OC)c2)c2c(-c3ccccc3)nn(-c3ccccc3)c2O1 (stereo not drawn) | 29.2 µM | 28.7 µM | 28.3 µM | > 100 µM | 14.8 µM | 51.2 µM | 38.4 µM | 38.2 µM | – | 29.6 µM | – | – | – | – | – | – | – | – | – |
| O=C(CCc1nnc2s/c(=C\c3ccc(Cl)cc3Cl)c(=O)n12)Nc1cc(Cl)c(Cl)cc1Cl | – | – | > 100 µM | > 100 µM | > 100 µM | > 100 µM | > 100 µM | > 100 µM | > 100 µM | – | > 100 µM | > 100 µM | > 100 µM | > 100 µM | > 100 µM | > 100 µM | – | – | – |
| Cc1cccc2ns[s+]c12 | – | – | 37.7 µM | > 100 µM | > 100 µM | > 100 µM | > 100 µM | – | > 100 µM | > 100 µM | – | – | – | – | – | – | – | – | – |
| CC1=C2CC3=C(C)C(=O)O[C@H]3C[C@@H](C)[C@@H]2CC1 | > 100 µM | – | > 100 µM | – | > 100 µM | > 100 µM | > 100 µM | – | > 100 µM | > 100 µM | – | – | – | – | – | – | – | – | – |
| COc1ccc2c(c1)CCC1C2CCC2(C)C1CC[C@@]2(O)CNC(=O)/C=C/c1ccc(O)c(O)c1 (stereo partly drawn) | – | > 100 µM | 19.2 µM | 79.1 µM | 3.37 µM | 9.6 µM | 2.28 µM | 2.19 µM | > 100 µM | > 100 µM | 2.95 µM | 5.59 µM | 0.937 µM | 3.56 µM | 0.382 µM | 3.02 µM | 3.11 µM | 0.503 µM | 3.31 µM |
| OB1OCc2ccccc21 | > 100 µM | > 100 µM | > 100 µM | 62.9 µM | > 100 µM | > 100 µM | > 100 µM | – | 92.8 µM | > 100 µM | – | – | – | – | – | – | – | – | – |
| COc1cc2c(cc1C)NC(=O)/C2=C/c1c(Cl)n(C)c2ccccc12 | 30.7 µM | 23.6 µM | 21.9 µM | 29.5 µM | 17.1 µM | 22.5 µM | 72.7 µM | – | 25 µM | 38.6 µM | – | – | – | – | – | – | – | – | – |
| CC(C)(Oc1ccc(C2C[C@H]2Cl)cc1)C(=O)O (stereo partly drawn) | > 100 µM | > 100 µM | > 100 µM | > 100 µM | > 100 µM | – | > 100 µM | > 100 µM | > 100 µM | > 100 µM | – | – | – | – | – | – | – | – | – |
| Nc1nc(NC(=O)C2=NS(=O)(=O)c3cc(S(N)(=O)=O)c(Cl)cc3N2)n[nH]1 | > 100 µM | – | > 100 µM | > 100 µM | > 100 µM | > 100 µM | > 100 µM | > 100 µM | > 100 µM | > 100 µM | – | – | – | – | – | – | – | – | – |
| COC(=O)c1ccc2[nH]c3c(c2c1)CC(=O)Nc1ccccc1-3 | > 100 µM | > 100 µM | > 100 µM | > 100 µM | > 100 µM | > 100 µM | – | > 100 µM | 40.2 µM | > 100 µM | – | – | – | – | – | – | – | – | – |
| COc1ccccc1C1C(Cl)C(=O)N1NC(=O)Cc1ccccc1 (stereo not drawn) | > 100 µM | – | > 100 µM | > 100 µM | > 100 µM | > 100 µM | > 100 µM | > 100 µM | > 100 µM | > 100 µM | – | – | – | – | – | – | – | – | – |
| C=CC(C)(C)c1cc([C@@H]2COc3cc(O)ccc3C2=O)c(O)c(OC)c1OC | 31.9 µM | 30.3 µM | 24.5 µM | – | – | 43.2 µM | > 100 µM | 20.9 µM | 19.7 µM | 30.6 µM | – | – | – | – | – | – | – | – | – |
| COc1cc(NS(C)(=O)=O)ccc1N1Cc2cnc3ccc4[nH]ccc1c4c23 | > 100 µM | > 100 µM | > 100 µM | > 100 µM | > 100 µM | – | 62.5 µM | > 100 µM | > 100 µM | > 100 µM | – | – | – | – | – | – | – | – | – |
| CN(C)CCCn1c2c(c3ccncc3c1=O)C(=O)c1ccccc1-2 | – | 10.6 µM | 21.8 µM | 20.6 µM | > 100 µM | 2.5 µM | – | 11.9 µM | 8.67 µM | – | 0.382 µM | 0.862 µM | 0.955 µM | 0.978 µM | 0.324 µM | 1.37 µM | 0.988 µM | 1.61 µM | – |
| CN1CCN(c2nc3c(c(=O)n(C)c(=O)n3C)n2C)CC1 | > 100 µM | > 100 µM | > 100 µM | > 100 µM | > 100 µM | > 100 µM | – | > 100 µM | > 100 µM | > 100 µM | – | – | – | – | – | – | – | – | – |
| N#Cc1ccc(/C=C2\Cc3ccccc3C2=O)cc1 | > 100 µM | > 100 µM | > 100 µM | > 100 µM | – | – | > 100 µM | > 100 µM | > 100 µM | > 100 µM | – | – | – | – | – | – | – | – | – |
| Cc1ccc(-c2c(C#N)c(O)n(NS(=O)(=O)c3ccccc3)c(=O)c2C#N)cc1 | > 100 µM | – | > 100 µM | > 100 µM | > 100 µM | > 100 µM | > 100 µM | > 100 µM | > 100 µM | > 100 µM | – | – | – | – | – | – | – | – | – |
| O=c1n(CCO)nc2n1CCCN2 | > 100 µM | > 100 µM | > 100 µM | > 100 µM | > 100 µM | > 100 µM | > 100 µM | – | > 100 µM | > 100 µM | – | – | – | – | – | – | – | – | – |
| O=C1CSC(c2ccc(Cl)cc2)N1c1ccc(-n2c(-c3ccccc3)nc3ccccc3c2=O)cc1 (stereo not drawn) | > 100 µM | – | > 100 µM | > 100 µM | > 100 µM | > 100 µM | > 100 µM | > 100 µM | 41 µM | > 100 µM | – | – | – | – | – | – | – | – | – |
| CCCCCCCCCCCCCCCCCc1nc(C#N)c(N)o1 | > 100 µM | > 100 µM | > 100 µM | > 100 µM | 36.4 µM | – | > 100 µM | – | – | > 100 µM | – | – | – | – | – | – | – | – | – |
